Test results: PMC5218480 (PLoS ONE, 2017)

Test system: MV-4-11 cells
Experiment: Gene expression microarray analysis (Affymetrix PrimeView) and GSEA
Format: cell-based, human
Design: RFU PODN (11730768_x_at) / Fold change /veh PODN (11730768_x_at) / RFU LINC00158 (11744669_a_at) / Fold change /veh LINC00158 (11744669_a_at) / RFU DUSP10 (11751237_a_at) / Fold change /veh DUSP10 (11751237_a_at) / RFU ID3 (11757404_x_at) / Fold change /veh ID3 (11757404_x_at) / RFU PLEKHG5 (11737974_s_at) / Fold change /veh PLEKHG5 (11737974_s_at) / RFU LRRC4B (11730491_at) / Fold change /veh LRRC4B (11730491_at) / RFU GIMAP4 (11747438_a_at) / Fold change /veh GIMAP4 (11747438_a_at) / RFU KRT8 (11758183_x_at) / Fold change /veh KRT8 (11758183_x_at) / RFU CNN1 (11734310_a_at) / Fold change /veh CNN1 (11734310_a_at) / RFU VPS37D (11726825_at) / Fold change /veh VPS37D (11726825_at) / RFU C10orf10 (11716522_x_at) / Fold change /veh C10orf10 (11716522_x_at) / RFU KIR2DL2 /// KIR2DL4 /// KIR2DL5A /// KIR2DL5B /// KIR2DS1 /// KIR2DS2 /// KIR2DS3 /// KIR2DS4 /// KIR3DL3 /// KIR3DL3 /// KIR3DS1 (11738374_at) / Fold change /veh KIR2DL2 /// KIR2DL4 /// KIR2DL5A /// KIR2DL5B /// KIR2DS1 /// KIR2DS2 /// KIR2DS3 /// KIR2DS4 /// KIR3DL3 /// KIR3DL3 /// KIR3DS1 (11738374_at) / RFU C1QL1 (11718748_at) / Fold change /veh C1QL1 (11718748_at) / RFU TMPRSS4 (11747572_a_at) / Fold change /veh TMPRSS4 (11747572_a_at) / RFU HAMP (11756126_x_at) / Fold change /veh HAMP (11756126_x_at) / RFU RNFT2 (11725882_a_at) / Fold change /veh RNFT2 (11725882_a_at) / RFU NR4A2 (11747474_a_at) / Fold change /veh NR4A2 (11747474_a_at) / RFU ABCC12 (11746883_a_at) / Fold change /veh ABCC12 (11746883_a_at) / RFU TMEM136 (11760407_x_at) / Fold change /veh TMEM136 (11760407_x_at) / RFU CLDN22 /// WWC2 (11732394_at) / Fold change /veh CLDN22 /// WWC2 (11732394_at) / RFU HLA-DPB1 (11760878_x_at) / Fold change /veh HLA-DPB1 (11760878_x_at) / RFU SPINT1 (11716480_a_at) / Fold change /veh SPINT1 (11716480_a_at) / RFU GAP43 (11754022_s_at) / Fold change /veh GAP43 (11754022_s_at) / RFU A4GNT (11735810_at) / Fold change /veh A4GNT (11735810_at) / RFU PRB3 (11715151_x_at) / Fold change /veh PRB3 (11715151_x_at) / RFU TUBB4B (11761932_at) / Fold change /veh TUBB4B (11761932_at) / RFU CAPN14 (11732068_a_at) / Fold change /veh CAPN14 (11732068_a_at) / RFU TMCC2 (11721928_a_at) / Fold change /veh TMCC2 (11721928_a_at) / RFU IRGQ (11745062_a_at) / Fold change /veh IRGQ (11745062_a_at) / RFU FAM174B (11720279_a_at) / Fold change /veh FAM174B (11720279_a_at) / RFU TMPRSS4 (11748680_a_at) / Fold change /veh TMPRSS4 (11748680_a_at) / RFU FAM212B (11763350_a_at) / Fold change /veh FAM212B (11763350_a_at) / RFU PLEKHG5 (11743358_a_at) / Fold change /veh PLEKHG5 (11743358_a_at) / RFU ZSCAN30 (11745921_a_at) / Fold change /veh ZSCAN30 (11745921_a_at) / RFU CMKLR1 (11741424_a_at) / Fold change /veh CMKLR1 (11741424_a_at) / RFU LOC101060620 /// MAPK8IP1 (11723275_at) / Fold change /veh LOC101060620 /// MAPK8IP1 (11723275_at) / RFU SPTSSB (11747773_x_at) / Fold change /veh SPTSSB (11747773_x_at) / RFU PRSS12 (11739890_at) / Fold change /veh PRSS12 (11739890_at) / RFU BIN1 (11741810_x_at) / Fold change /veh BIN1 (11741810_x_at) / RFU WNT11 (11732464_a_at) / Fold change /veh WNT11 (11732464_a_at) / RFU C10orf10 (11716521_a_at) / Fold change /veh C10orf10 (11716521_a_at) / RFU C5orf56 (11738089_at) / Fold change /veh C5orf56 (11738089_at) / RFU CYB561 (11721691_x_at) / Fold change /veh CYB561 (11721691_x_at) / RFU ANKRD19P (11752326_a_at) / Fold change /veh ANKRD19P (11752326_a_at) / RFU OR2T12 /// OR2T33 /// OR2T8 (11738714_s_at) / Fold change /veh OR2T12 /// OR2T33 /// OR2T8 (11738714_s_at) / RFU VCAN (11748164_a_at) / Fold change /veh VCAN (11748164_a_at) / RFU JSRP1 (11732532_at) / Fold change /veh JSRP1 (11732532_at) / RFU KRTAP10-11 (11738290_x_at) / Fold change /veh KRTAP10-11 (11738290_x_at) / RFU MYO3A (11730013_a_at) / Fold change /veh MYO3A (11730013_a_at) / RFU EBF3 (11725865_a_at) / Fold change /veh EBF3 (11725865_a_at) / RFU CAMK2N1 (11719241_x_at) / Fold change /veh CAMK2N1 (11719241_x_at) / RFU C5orf56 (11738088_a_at) / Fold change /veh C5orf56 (11738088_a_at) / RFU OLFML3 (11715873_a_at) / Fold change /veh OLFML3 (11715873_a_at) / RFU LOC100653217 /// NTM (11731650_a_at) / Fold change /veh LOC100653217 /// NTM (11731650_a_at) / RFU MAPK11 (11762145_a_at) / Fold change /veh MAPK11 (11762145_a_at) / RFU FIZ1 (11724087_x_at) / Fold change /veh FIZ1 (11724087_x_at) / RFU OASL (11726364_x_at) / Fold change /veh OASL (11726364_x_at) / RFU SOX15 (11748057_x_at) / Fold change /veh SOX15 (11748057_x_at) / RFU CD79A (11719716_a_at) / Fold change /veh CD79A (11719716_a_at) / RFU HIST1H1D (11736915_at) / Fold change /veh HIST1H1D (11736915_at) / RFU CASKIN2 (11723855_a_at) / Fold change /veh CASKIN2 (11723855_a_at) / RFU LOC730098 (11760151_x_at) / Fold change /veh LOC730098 (11760151_x_at) / RFU OR4N2 (11742367_at) / Fold change /veh OR4N2 (11742367_at) / RFU PRRT2 (11749266_a_at) / Fold change /veh PRRT2 (11749266_a_at) / RFU SNX32 (11753110_a_at) / Fold change /veh SNX32 (11753110_a_at) / RFU CDHR5 (11726645_a_at) / Fold change /veh CDHR5 (11726645_a_at) / RFU RCAN1 (11760418_a_at) / Fold change /veh RCAN1 (11760418_a_at) / RFU FAM167A (11723789_a_at) / Fold change /veh FAM167A (11723789_a_at) / RFU FAM26E (11764081_at) / Fold change /veh FAM26E (11764081_at) / RFU ISYNA1 (11749810_s_at) / Fold change /veh ISYNA1 (11749810_s_at) / RFU ACY1 (11761880_at) / Fold change /veh ACY1 (11761880_at) / RFU 11764098_at / Fold change /veh 11764098_at / RFU SAMD14 (11745864_x_at) / Fold change /veh SAMD14 (11745864_x_at) / RFU NPB (11741838_a_at) / Fold change /veh NPB (11741838_a_at) / RFU TMPRSS6 (11731388_a_at) / Fold change /veh TMPRSS6 (11731388_a_at) / RFU KRTAP10-2 (11738614_at) / Fold change /veh KRTAP10-2 (11738614_at) / RFU ARHGAP8 /// PRR5-ARHGAP8 (11727945_x_at) / Fold change /veh ARHGAP8 /// PRR5-ARHGAP8 (11727945_x_at) / RFU KRTAP5-7 /// NADSYN1 (11734609_at) / Fold change /veh KRTAP5-7 /// NADSYN1 (11734609_at) / RFU RASL12 (11751679_a_at) / Fold change /veh RASL12 (11751679_a_at) / RFU CDKN2B (11736163_a_at) / Fold change /veh CDKN2B (11736163_a_at) / RFU PRF1 (11729649_at) / Fold change /veh PRF1 (11729649_at) / RFU, ZNF638 /// ZNF638-IT1 / Fold change vs veh, ZNF638 /// ZNF638-IT1 / RFU, PANK3 / Fold change vs veh, PANK3 / RFU, SH3YL1 / Fold change vs veh, SH3YL1 / RFU, ZEB2 / Fold change vs veh, ZEB2 / RFU, NRIP1 / Fold change vs veh, NRIP1 / RFU, PTTG1IP / Fold change vs veh, PTTG1IP / RFU, CAPN2 / Fold change vs veh, CAPN2 / RFU, MED14 / Fold change vs veh, MED14 / RFU, SNORA58 / Fold change vs veh, SNORA58 / RFU, C1orf63 / Fold change vs veh, C1orf63 / RFU, LRRFIP1 / Fold change vs veh, LRRFIP1 / RFU, NDUFAF7 / Fold change vs veh, NDUFAF7 / RFU, SLC12A2 / Fold change vs veh, SLC12A2 / RFU, IBTK / Fold change vs veh, IBTK / RFU, ESF1 / Fold change vs veh, ESF1 / Fold change vs veh, TMEM50B / RFU, TAOK1 / Fold change vs veh, TAOK1 / RFU, ACBD3 / Fold change vs veh, ACBD3 / RFU, TMA16 / Fold change vs veh, TMA16 / RFU, RWDD3 / Fold change vs veh, RWDD3 / RFU, BCAT1 / Fold change vs veh, BCAT1 / RFU, EDEM3 / Fold change vs veh, EDEM3 / RFU, TMEM33 / Fold change vs veh, TMEM33 / RFU, WDR75 / Fold change vs veh, WDR75 / RFU, AHCTF1 / Fold change vs veh, AHCTF1 / RFU, TFRC / Fold change vs veh, TFRC / RFU, ZDHHC17 / Fold change vs veh, ZDHHC17 / RFU, NOM1 / Fold change vs veh, NOM1 / RFU, ARL8B / Fold change vs veh, ARL8B / RFU, ZBTB11 / Fold change vs veh, ZBTB11 / RFU, TAMM41 / Fold change vs veh, TAMM41 / RFU, KIAA1704 /// LOC100996395 / Fold change vs veh, KIAA1704 /// LOC100996395 / RFU, ING1 / Fold change vs veh, ING1 / RFU, TRMT61B / Fold change vs veh, TRMT61B / RFU, FUBP3 / Fold change vs veh, FUBP3 / RFU, TP53 / Fold change vs veh, TP53 / RFU, TNKS2 / Fold change vs veh, TNKS2 / RFU, ZFP14 / Fold change vs veh, ZFP14 / RFU, ACTR2 / Fold change vs veh, ACTR2 / RFU, PPP3R1 / Fold change vs veh, PPP3R1 / RFU, PIK3R1 / Fold change vs veh, PIK3R1 / RFU, HNRNPA1 / Fold change vs veh, HNRNPA1 / RFU, RNF170 / Fold change vs veh, RNF170 / RFU, ZNF28 / Fold change vs veh, ZNF28 / RFU, RNGTT / Fold change vs veh, RNGTT / RFU, OGT / Fold change vs veh, OGT / RFU, BRD1 / Fold change vs veh, BRD1 / RFU, MARS / Fold change vs veh, MARS / RFU, ZNF655 / Fold change vs veh, ZNF655 / RFU, FAHD1 / Fold change vs veh, FAHD1 / RFU, BDP1 / Fold change vs veh, BDP1 / RFU, LRRCC1 / Fold change vs veh, LRRCC1 / RFU, ARID1A / Fold change vs veh, ARID1A / RFU, ZNF146 / Fold change vs veh, ZNF146 / RFU, ZNF330 / Fold change vs veh, ZNF330 / RFU, GPN3 / Fold change vs veh, GPN3 / RFU, C9orf123 / Fold change vs veh, C9orf123 / RFU, N4BP2L2 / Fold change vs veh, N4BP2L2 / RFU, ARFIP1 / Fold change vs veh, ARFIP1 / RFU, FAM179B / Fold change vs veh, FAM179B / RFU, BCL10 / Fold change vs veh, BCL10 / RFU, UHRF1BP1L / Fold change vs veh, UHRF1BP1L / RFU, BET1 / Fold change vs veh, BET1 / RFU, CNOT2 / Fold change vs veh, CNOT2 / RFU, ZNF268 / Fold change vs veh, ZNF268 / Fold change vs veh, ZNF507 / RFU, DGCR2 / Fold change vs veh, DGCR2 / RFU, WDSUB1 / Fold change vs veh, WDSUB1 / Fold change vs veh, HSP90B1 /// MIR3652 / RFU, ADSS / Fold change vs veh, ADSS / RFU, GK / Fold change vs veh, GK / RFU, ZNF148 / Fold change vs veh, ZNF148 / RFU, TAF9 / Fold change vs veh, TAF9 / RFU, SLC1A5 / Fold change vs veh, SLC1A5 / RFU, SLMO2 / Fold change vs veh, SLMO2 / RFU, ABCC4 / Fold change vs veh, ABCC4 / RFU, LOC101060439 /// RAP1B / Fold change vs veh, LOC101060439 /// RAP1B / RFU, RFX7 / Fold change vs veh, RFX7 / RFU, GTPBP10 / Fold change vs veh, GTPBP10 / RFU, CNEP1R1 / Fold change vs veh, CNEP1R1 / RFU, BIVM-ERCC5 /// ERCC5 / Fold change vs veh, BIVM-ERCC5 /// ERCC5 / RFU, ILF3 / Fold change vs veh, ILF3 / RFU 11762660_at / Fold change /veh 11762660_at / RFU VCAN (11757783_s_at) / Fold change /veh VCAN (11757783_s_at) / RFU DDX43 (11728927_at) / Fold change /veh DDX43 (11728927_at) / RFU KRT8 (11758188_x_at) / Fold change /veh KRT8 (11758188_x_at) / RFU NKD1 (11759106_at) / Fold change /veh NKD1 (11759106_at) / RFU SRD5A1 (11742802_a_at) / Fold change /veh SRD5A1 (11742802_a_at) / RFU TPSAB1 /// TPSB2 (11721975_s_at) / Fold change /veh TPSAB1 /// TPSB2 (11721975_s_at) / RFU GSTM3 (11746129_a_at) / Fold change /veh GSTM3 (11746129_a_at) / RFU IL23R (11737362_x_at) / Fold change /veh IL23R (11737362_x_at) / RFU TMEM51 (11727254_a_at) / Fold change /veh TMEM51 (11727254_a_at) / RFU PIWIL2 (11732686_x_at) / Fold change /veh PIWIL2 (11732686_x_at) / RFU ORM1 (11744905_x_at) / Fold change /veh ORM1 (11744905_x_at) / RFU CCDC152 (11743942_at) / Fold change /veh CCDC152 (11743942_at) / RFU ECM1 (11717891_a_at) / Fold change /veh ECM1 (11717891_a_at) / RFU IL23R (11748794_a_at) / Fold change /veh IL23R (11748794_a_at) / RFU TNFAIP8L3 (11732012_x_at) / Fold change /veh TNFAIP8L3 (11732012_x_at) / RFU MBOAT4 (11741988_at) / Fold change /veh MBOAT4 (11741988_at) / RFU 11764193_at / Fold change /veh 11764193_at / RFU TMEM53 (11763286_at) / Fold change /veh TMEM53 (11763286_at) / RFU MAGEB2 (11727129_at) / Fold change /veh MAGEB2 (11727129_at) / RFU TMEM200A (11744735_a_at) / Fold change /veh TMEM200A (11744735_a_at) / RFU CCDC152 (11751479_a_at) / Fold change /veh CCDC152 (11751479_a_at) / RFU FAM211A (11726209_a_at) / Fold change /veh FAM211A (11726209_a_at) / RFU RGS16 (11746705_a_at) / Fold change /veh RGS16 (11746705_a_at) / RFU VCAN (11755009_s_at) / Fold change /veh VCAN (11755009_s_at) / RFU RHOB (11743442_s_at) / Fold change /veh RHOB (11743442_s_at) / RFU RGS16 (11720943_a_at) / Fold change /veh RGS16 (11720943_a_at) / RFU RGS16 (11720944_at) / Fold change /veh RGS16 (11720944_at) / RFU, VPS4B / Fold change vs veh, VPS4B / RFU, CREB1 / Fold change vs veh, CREB1 / RFU, DNAJC13 / Fold change vs veh, DNAJC13 / RFU, GNAQ / Fold change vs veh, GNAQ / RFU, CDK5R1 / Fold change vs veh, CDK5R1 / RFU, ZRANB3 / Fold change vs veh, ZRANB3 / RFU, CUL4A / Fold change vs veh, CUL4A / RFU, CCNY / Fold change vs veh, CCNY / RFU, UFL1 / Fold change vs veh, UFL1 / RFU, COG3 / Fold change vs veh, COG3 / RFU, DIAPH2 / Fold change vs veh, DIAPH2 / RFU, SKA2 / Fold change vs veh, SKA2 / RFU, AFF3 / Fold change vs veh, AFF3 / RFU, LMF1 / Fold change vs veh, LMF1 / RFU, IPO11 / Fold change vs veh, IPO11 / RFU, DFFB / Fold change vs veh, DFFB / RFU, FOXP1 / Fold change vs veh, FOXP1 / RFU, CARD8 / Fold change vs veh, CARD8 / RFU, STRN3 / Fold change vs veh, STRN3 / RFU, ADK / Fold change vs veh, ADK / RFU, RASSF2 / Fold change vs veh, RASSF2 / RFU, WIPF1 / Fold change vs veh, WIPF1 / RFU, LARP1B / Fold change vs veh, LARP1B / RFU, RASA1 / Fold change vs veh, RASA1 / RFU, RB1 / Fold change vs veh, RB1 / RFU, PPFIA1 / Fold change vs veh, PPFIA1 / RFU, MAT2A / Fold change vs veh, MAT2A / RFU, CCT5 / Fold change vs veh, CCT5 / RFU, WDR92 / Fold change vs veh, WDR92 / RFU, CUX1 / Fold change vs veh, CUX1 / RFU, TTC7A / Fold change vs veh, TTC7A / RFU, TMEM135 / Fold change vs veh, TMEM135 / RFU, DEPTOR / Fold change vs veh, DEPTOR / RFU, CPM / Fold change vs veh, CPM / RFU, DNAJB6 / Fold change vs veh, DNAJB6 / RFU, CACNA2D3 / Fold change vs veh, CACNA2D3 / RFU, DTX4 / Fold change vs veh, DTX4 / RFU, TFCP2 / Fold change vs veh, TFCP2 / RFU, GMCL1 /// GMCL1P1 / Fold change vs veh, GMCL1 /// GMCL1P1 / RFU, AEBP2 / Fold change vs veh, AEBP2 / RFU, SNHG1 /// SNORD22 /// SNORD25 /// SNORD26 /// SNORD27 /// SNORD28 /// SNORD29 /// SNORD31 / Fold change vs veh, SNHG1 /// SNORD22 /// SNORD25 /// SNORD26 /// SNORD27 /// SNORD28 /// SNORD29 /// SNORD31 / Fold change (Aza/veh), C12orf56 (ProbeSet 11735607_a_at) / Fold change (ACY-1035/veh), C12orf56 (ProbeSet 11735607_a_at) / Fold change (Aza/veh), FGFR1OP (ProbeSet 11751329_s_at) / Fold change (ACY-1035/veh), FGFR1OP (ProbeSet 11751329_s_at) / Fold change (Aza/veh), VPS36 (ProbeSet 11739960_a_at) / Fold change (ACY-1035/veh), VPS36 (ProbeSet 11739960_a_at) / RFU SYPL1 (11715823_x_at) / Fold change /veh SYPL1 (11715823_x_at) / RFU IGFBP7 (11715501_s_at) / Fold change /veh IGFBP7 (11715501_s_at) / RFU REEP3 (11722064_at) / Fold change /veh REEP3 (11722064_at) / RFU IGLL1 (11728026_x_at) / Fold change /veh IGLL1 (11728026_x_at): dose or concentration left out as unconfirmed
Conditions: MV-4-11 cells, 48 hours

In the case of `Nc1ccc(-c2cccs2)cc1NC(=O)c1ccc2c(c1)cc(C1CC1)n2CCN1CCOCC1` [ACY-1035], the “RFU ORM1 (11744905_x_at)” value is reported as 9.21 RFU.
